Values quoted from earlier work, collected in PubChem BioAssay AID1259409 (Chemical Carcinogenesis Research Information System (CCRIS), 2018).

System: rodent chemically induced tumor inhibition, incidence and multiplicity
Test: CCRIS tumor inhibitor studies
Conditions: Route [Inhibitor]: ORAL, Species: RAT, Promoter: NONE USED

SMILES: CC1=C(/C=C/C(C)=C/C=C/C(C)=C/C(=O)NCCO)C(C)(C)CCC1
- tumour outcome (control, treated, inhibition, significance) (Carcinogen: 1,2-DIMETHYLHYDRAZINE, 540-73-8, Dose [Inhibitor]: 2 MMOL/KG DIET DAILY STARTING 12 D AFTER CARCINOGEN TREATMENT THROUGH ABOUT 8 MO AFTER CARCINOGEN DOSE (STUDY DURATION:, Strain/Sex: F344/MALE, Target Tissue: Type of Lesion: COLON: ADENOCARCINOMA, Dose [Carcinogen]: 150 MG/KG BW ONCE): 10/39 (26%), 5/30 (17%), 35%, not significant
- tumour outcome (control, treated, inhibition, significance) (Carcinogen: 1,2-DIMETHYLHYDRAZINE, 540-73-8, Dose [Inhibitor]: 2 MMOL/KG DIET DAILY STARTING 12 D AFTER CARCINOGEN TREATMENT THROUGH ABOUT 8 MO AFTER CARCINOGEN DOSE (STUDY DURATION:, Strain/Sex: F344/MALE, Target Tissue: Type of Lesion: COLON: ADENOMA, Dose [Carcinogen]: 150 MG/KG BW ONCE): 23/39 (59%), 11/30 (37%), 37%, not significant
- tumour outcome (control, treated, inhibition, significance) (Carcinogen: L-AZASERINE, 115-02-6, Dose [Inhibitor]: 1 MMOL/KG DIET DAILY FOR 358 D STARTING 1 WK AFTER COMPLETION OF CARCINOGEN TREATMENT (STUDY DURATION: 66 WK), Strain/Sex: WISTAR-LEWIS/FEMALE, Target Tissue: Type of Lesion: PANCREAS: ADENOMA, Dose [Carcinogen]: 10 MG/KG BW 1/WK FOR 15 WK): 50%, 25%, 50%, not significant
- tumour outcome (control, treated, inhibition, significance) (Carcinogen: L-AZASERINE, 115-02-6, Dose [Inhibitor]: 1 MMOL/KG DIET DAILY FOR 358 D STARTING 1 WK AFTER COMPLETION OF CARCINOGEN TREATMENT (STUDY DURATION: 66 WK), Strain/Sex: WISTAR-LEWIS/FEMALE, Target Tissue: Type of Lesion: PANCREAS: CARCINOMA IN SITU, Dose [Carcinogen]: 10 MG/KG BW 1/WK FOR 15 WK): 8%, 25%, -213%, not calculated
- tumour outcome (control, treated, inhibition, significance) (Carcinogen: L-AZASERINE, 115-02-6, Dose [Inhibitor]: 1 MMOL/KG DIET DAILY FOR 358 D STARTING 1 WK AFTER COMPLETION OF CARCINOGEN TREATMENT (STUDY DURATION: 66 WK), Strain/Sex: WISTAR-LEWIS/FEMALE, Target Tissue: Type of Lesion: PANCREAS: CARCINOMA, Dose [Carcinogen]: 10 MG/KG BW 1/WK FOR 15 WK): 13%, 0%, 100%, not significant
- tumour outcome (control, treated, inhibition, significance) (Carcinogen: L-AZASERINE, 115-02-6, Dose [Inhibitor]: 1 MMOL/KG DIET DAILY FOR 358 D STARTING 1 WK AFTER COMPLETION OF CARCINOGEN TREATMENT (STUDY DURATION: 66 WK), Strain/Sex: WISTAR-LEWIS/FEMALE, Target Tissue: Type of Lesion: PANCREAS: NEOPLASM, Dose [Carcinogen]: 10 MG/KG BW 1/WK FOR 15 WK): 71%, 50%, 30%, p 0.14
- tumour outcome (control, treated, inhibition, significance) (Carcinogen: L-AZASERINE, 115-02-6, Dose [Inhibitor]: 1 MMOL/KG DIET DAILY FOR 358 D STARTING 1 WK AFTER COMPLETION OF CARCINOGEN TREATMENT (STUDY DURATION: 66 WK), Strain/Sex: WISTAR-LEWIS/MALE, Target Tissue: Type of Lesion: PANCREAS: ADENOMA, Dose [Carcinogen]: 10 MG/KG BW 1/WK FOR 15 WK): 25%, 56%, -124%, not calculated
- tumour outcome (control, treated, inhibition, significance) (Carcinogen: L-AZASERINE, 115-02-6, Dose [Inhibitor]: 1 MMOL/KG DIET DAILY FOR 358 D STARTING 1 WK AFTER COMPLETION OF CARCINOGEN TREATMENT (STUDY DURATION: 66 WK), Strain/Sex: WISTAR-LEWIS/MALE, Target Tissue: Type of Lesion: PANCREAS: CARCINOMA IN SITU, Dose [Carcinogen]: 10 MG/KG BW 1/WK FOR 15 WK): 29%, 28%, 3%, not significant
- tumour outcome (control, treated, inhibition, significance) (Carcinogen: L-AZASERINE, 115-02-6, Dose [Inhibitor]: 1 MMOL/KG DIET DAILY FOR 358 D STARTING 1 WK AFTER COMPLETION OF CARCINOGEN TREATMENT (STUDY DURATION: 66 WK), Strain/Sex: WISTAR-LEWIS/MALE, Target Tissue: Type of Lesion: PANCREAS: CARCINOMA, Dose [Carcinogen]: 10 MG/KG BW 1/WK FOR 15 WK): 46%, 8%, 83%, p<0.05
- tumour outcome (control, treated, inhibition, significance) (Carcinogen: L-AZASERINE, 115-02-6, Dose [Inhibitor]: 1 MMOL/KG DIET DAILY FOR 358 D STARTING 1 WK AFTER COMPLETION OF CARCINOGEN TREATMENT (STUDY DURATION: 66 WK), Strain/Sex: WISTAR-LEWIS/MALE, Target Tissue: Type of Lesion: PANCREAS: NEOPLASM, Dose [Carcinogen]: 10 MG/KG BW 1/WK FOR 15 WK): 100%, 92%, 8%, not significant
- tumour outcome (control, treated, inhibition, significance) (Carcinogen: L-AZASERINE, 115-02-6, Dose [Inhibitor]: 2.0 MMOL/KG DIET DAILY FOR 336 D OUT OF 358 D STARTING 1 WK AFTER COMPLETION OF CARCINOGEN TREATMENT (STUDY DURATION: 66, Strain/Sex: WISTAR-LEWIS/FEMALE, Target Tissue: Type of Lesion: PANCREAS: NEOPLASM (ADENOMA, CARCINOMA IN SITU, CARCINOMA), Dose [Carcinogen]: 10 MG/KG BW 1/WK FOR 15 WK STARTING 15 WK PRIOR TO AGENT TREATMENT): ?/24 (71%), ?/24 (25%), 65%, p<0.05
- tumour outcome (control, treated, inhibition, significance) (Carcinogen: L-AZASERINE, 115-02-6, Dose [Inhibitor]: 2 MMOL/KG DIET DAILY FOR 336 D OUT OF 358 D STARTING 1 WK AFTER COMPLETION OF CARCINOGEN TREATMENT (STUDY DURATION: 66 W, Strain/Sex: WISTAR-LEWIS/FEMALE, Target Tissue: Type of Lesion: PANCREAS: ADENOMA, Dose [Carcinogen]: 10 MG/KG BW 1/WK FOR 15 WK): 50%, 13%, 74%, not significant
- tumour outcome (control, treated, inhibition, significance) (Carcinogen: L-AZASERINE, 115-02-6, Dose [Inhibitor]: 2 MMOL/KG DIET DAILY FOR 336 D OUT OF 358 D STARTING 1 WK AFTER COMPLETION OF CARCINOGEN TREATMENT (STUDY DURATION: 66 W, Strain/Sex: WISTAR-LEWIS/FEMALE, Target Tissue: Type of Lesion: PANCREAS: CARCINOMA IN SITU, Dose [Carcinogen]: 10 MG/KG BW 1/WK FOR 15 WK): 8%, 13%, -63%, not significant
- tumour outcome (control, treated, inhibition, significance) (Carcinogen: L-AZASERINE, 115-02-6, Dose [Inhibitor]: 2 MMOL/KG DIET DAILY FOR 336 D OUT OF 358 D STARTING 1 WK AFTER COMPLETION OF CARCINOGEN TREATMENT (STUDY DURATION: 66 W, Strain/Sex: WISTAR-LEWIS/FEMALE, Target Tissue: Type of Lesion: PANCREAS: CARCINOMA, Dose [Carcinogen]: 10 MG/KG BW 1/WK FOR 15 WK STARTING 15 WK PRIOR TO AGENT TREATMENT): ?/24 (13%), ?/24 (0%), 100%, not significant
- tumour outcome (control, treated, inhibition, significance) (Carcinogen: L-AZASERINE, 115-02-6, Dose [Inhibitor]: 2 MMOL/KG DIET DAILY FOR 336 D OUT OF 358 D STARTING 1 WK AFTER COMPLETION OF CARCINOGEN TREATMENT (STUDY DURATION: 66 W, Strain/Sex: WISTAR-LEWIS/MALE, Target Tissue: Type of Lesion: PANCREAS: ADENOMA, Dose [Carcinogen]: 10 MG/KG BW 1/WK FOR 15 WK): 25%, 28%, -12%, not significant
- tumour outcome (control, treated, inhibition, significance) (Carcinogen: L-AZASERINE, 115-02-6, Dose [Inhibitor]: 2 MMOL/KG DIET DAILY FOR 336 D OUT OF 358 D STARTING 1 WK AFTER COMPLETION OF CARCINOGEN TREATMENT (STUDY DURATION: 66 W, Strain/Sex: WISTAR-LEWIS/MALE, Target Tissue: Type of Lesion: PANCREAS: CARCINOMA IN SITU, Dose [Carcinogen]: 10 MG/KG BW 1/WK FOR 15 WK): 29%, 44%, -52%, not significant
- tumour outcome (control, treated, inhibition, significance) (Carcinogen: L-AZASERINE, 115-02-6, Dose [Inhibitor]: 2 MMOL/KG DIET DAILY FOR 336 D OUT OF 358 D STARTING 1 WK AFTER COMPLETION OF CARCINOGEN TREATMENT (STUDY DURATION: 66 W, Strain/Sex: WISTAR-LEWIS/MALE, Target Tissue: Type of Lesion: PANCREAS: CARCINOMA, Dose [Carcinogen]: 10 MG/KG BW 1/WK FOR 15 WK): 46%, 4%, 91%, p<0.05
- tumour outcome (control, treated, inhibition, significance) (Carcinogen: L-AZASERINE, 115-02-6, Dose [Inhibitor]: 2 MMOL/KG DIET DAILY FOR 336 D OUT OF 358 D STARTING 1 WK AFTER COMPLETION OF CARCINOGEN TREATMENT (STUDY DURATION: 66 W, Strain/Sex: WISTAR-LEWIS/MALE, Target Tissue: Type of Lesion: PANCREAS: NEOPLASM, Dose [Carcinogen]: 10 MG/KG BW 1/WK FOR 15 WK): 100%, 76%, 24%, not significant
- tumour outcome (control, treated, inhibition, significance) (Carcinogen: N-(4-(5-NITRO-2-FURYL)-2-THIAZOLYL)FORMAMIDE, 24554-26-5, Dose [Inhibitor]: 343 MG/KG DIET DAILY FOR 39 WK STARTING ONE WK FOLLOWING THE TERMINATION OF CARCINOGEN ADMINISTRATION (STUDY DURATION: 5, Strain/Sex: F344/FEMALE, Target Tissue: Type of Lesion: URINARY BLADDER: CARCINOMA, Dose [Carcinogen]: 2 G/KG IN DIET DAILY FOR 10 WK): 105/200 (53%), 67/100 (67%), -26%, p 0.0167
- tumour outcome (control, treated, inhibition, significance) (Carcinogen: N-(4-(5-NITRO-2-FURYL)-2-THIAZOLYL)FORMAMIDE, 24554-26-5, Dose [Inhibitor]: 343 MG/KG/D IN DIET FOR 39 WK STARTING 1 WK POST CARCINOGEN TREATMENT (STUDY DURATION: 50 WK), Strain/Sex: F344/FEMALE, Target Tissue: Type of Lesion: URINARY BLADDER: CARCINOMA, Dose [Carcinogen]: 2 G/KG/D IN DIET FOR 10 WK): 105/200 (53%), 67/100 (67%), -26%, p 0.0167
- tumour outcome (control, treated, inhibition, significance) (Carcinogen: N-(4-(5-NITRO-2-FURYL)-2-THIAZOLYL)FORMAMIDE, 24554-26-5, Dose [Inhibitor]: 343 MG/KG/D IN DIET FOR 39 WK STARTING 1 WK POST CARCINOGEN TREATMENT (STUDY DURATION: 50 WK), Strain/Sex: F344/FEMALE, Target Tissue: Type of Lesion: URINARY BLADDER: PAPILLOMA, Dose [Carcinogen]: 2 G/KG/D IN DIET FOR 10 WK): 15/200 (7.5%), 24/100 (24%), -220%, p 0.00006
- tumour outcome (control, treated, inhibition, significance) (Carcinogen: N-(4-(5-NITRO-2-FURYL)-2-THIAZOLYL)FORMAMIDE, 24554-26-5, Dose [Inhibitor]: 686 MG/KG DIET DAILY FOR 39 WK STARTING ONE WK FOLLOWING THE TERMINATION OF CARCINOGEN ADMINISTRATION (STUDY DURATION: 5, Strain/Sex: F344/FEMALE, Target Tissue: Type of Lesion: URINARY BLADDER: CARCINOMA, Dose [Carcinogen]: 2 G/KG IN DIET DAILY FOR 10 WK): 105/200 (53%), 49/100 (49%), 8%, p 0.5657
- tumour outcome (control, treated, inhibition, significance) (Carcinogen: N-(4-(5-NITRO-2-FURYL)-2-THIAZOLYL)FORMAMIDE, 24554-26-5, Dose [Inhibitor]: 686 MG/KG DIET DAILY FOR 39 WK STARTING ONE WK FOLLOWING THE TERMINATION OF CARCINOGEN ADMINISTRATION (STUDY DURATION: 5, Strain/Sex: F344/FEMALE, Target Tissue: Type of Lesion: URINARY BLADDER: PAPILLOMA, Dose [Carcinogen]: 2 G/KG IN DIET DAILY FOR 10 WK): 15/200 (8%), 17/100 (17%), -113%, p 0.012
